The target in experiment [1] is T1, Adrenergic receptor alpha-1 (Rattus norvegicus, UniProt P15823+P23944+P43140).
T1 sequence (P15823 whole entry): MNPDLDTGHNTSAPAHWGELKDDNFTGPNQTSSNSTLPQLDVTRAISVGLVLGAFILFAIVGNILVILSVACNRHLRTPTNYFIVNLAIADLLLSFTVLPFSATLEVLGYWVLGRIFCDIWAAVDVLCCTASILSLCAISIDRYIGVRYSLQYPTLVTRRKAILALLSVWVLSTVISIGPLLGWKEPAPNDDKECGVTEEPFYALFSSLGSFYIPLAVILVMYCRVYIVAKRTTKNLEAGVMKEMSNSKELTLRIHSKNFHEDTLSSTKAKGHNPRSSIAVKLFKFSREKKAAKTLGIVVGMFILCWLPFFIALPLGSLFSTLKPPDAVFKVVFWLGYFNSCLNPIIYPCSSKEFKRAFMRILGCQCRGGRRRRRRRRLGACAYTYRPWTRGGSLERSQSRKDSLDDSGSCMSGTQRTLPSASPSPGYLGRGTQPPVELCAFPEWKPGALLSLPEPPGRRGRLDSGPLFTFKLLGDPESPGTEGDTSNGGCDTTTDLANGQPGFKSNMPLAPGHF
T1 sequence (P23944 whole entry): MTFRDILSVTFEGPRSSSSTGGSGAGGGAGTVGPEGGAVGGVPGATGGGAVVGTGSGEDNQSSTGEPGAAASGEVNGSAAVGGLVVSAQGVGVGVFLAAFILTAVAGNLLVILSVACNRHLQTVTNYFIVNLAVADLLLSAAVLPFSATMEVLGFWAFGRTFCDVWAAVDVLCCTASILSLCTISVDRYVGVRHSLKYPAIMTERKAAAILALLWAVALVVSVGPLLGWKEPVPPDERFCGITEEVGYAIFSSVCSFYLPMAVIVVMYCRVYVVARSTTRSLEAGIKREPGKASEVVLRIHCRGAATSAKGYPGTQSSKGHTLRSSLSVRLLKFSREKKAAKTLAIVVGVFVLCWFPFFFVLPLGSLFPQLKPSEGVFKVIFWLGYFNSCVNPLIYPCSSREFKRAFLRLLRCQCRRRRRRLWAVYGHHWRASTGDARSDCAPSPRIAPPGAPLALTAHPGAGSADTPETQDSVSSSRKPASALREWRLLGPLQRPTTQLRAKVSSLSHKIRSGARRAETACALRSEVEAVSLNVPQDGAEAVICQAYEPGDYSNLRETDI
T1 sequence (P43140 whole entry): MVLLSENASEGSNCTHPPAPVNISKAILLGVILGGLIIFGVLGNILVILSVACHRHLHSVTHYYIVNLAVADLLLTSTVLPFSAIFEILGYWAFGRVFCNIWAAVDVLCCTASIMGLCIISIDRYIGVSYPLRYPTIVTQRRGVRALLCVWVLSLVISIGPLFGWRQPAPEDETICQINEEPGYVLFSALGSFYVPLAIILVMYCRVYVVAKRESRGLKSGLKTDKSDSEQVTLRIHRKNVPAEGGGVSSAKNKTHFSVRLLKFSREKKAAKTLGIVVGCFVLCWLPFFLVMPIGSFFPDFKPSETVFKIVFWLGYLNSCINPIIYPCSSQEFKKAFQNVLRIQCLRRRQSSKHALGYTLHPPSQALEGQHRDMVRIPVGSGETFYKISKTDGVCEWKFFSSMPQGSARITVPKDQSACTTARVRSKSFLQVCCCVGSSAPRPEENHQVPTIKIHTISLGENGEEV
In words: Inhibitory concentration against Alpha-1 adrenergic receptor in rat cerebral cortex membrane using [3H]prazosin as radioligand. The class given is cell membranes.

In experiment [2] the target is Serotonin 1a (5-HT1a) receptor/Adrenergic receptor alpha-1 (Rattus norvegicus) (UniProt P15823+P23944+P43140+P19327). Description: Ratio of alpha-1 adrenergic receptor to that of 5-hydroxytryptamine 1A receptor. It is filed as protein assay.
The species named for the next experiment is Rattus norvegicus. In words: Ratio of dopamine receptor D2 to that of 5-hydroxytryptamine 1A receptor.
The target of a further experiment is D(2) dopamine receptor (Rattus norvegicus, UniProt P61169). Description: Inhibitory concentration against Dopamine receptor D2 in rat striatum membrane using [3H]raclopride as radioligand. The class given is cell membranes.
Experiment [3] addresses T2, 5-hydroxytryptamine receptor 1A (Rattus norvegicus, UniProt P19327).
T2 sequence (P19327 whole entry): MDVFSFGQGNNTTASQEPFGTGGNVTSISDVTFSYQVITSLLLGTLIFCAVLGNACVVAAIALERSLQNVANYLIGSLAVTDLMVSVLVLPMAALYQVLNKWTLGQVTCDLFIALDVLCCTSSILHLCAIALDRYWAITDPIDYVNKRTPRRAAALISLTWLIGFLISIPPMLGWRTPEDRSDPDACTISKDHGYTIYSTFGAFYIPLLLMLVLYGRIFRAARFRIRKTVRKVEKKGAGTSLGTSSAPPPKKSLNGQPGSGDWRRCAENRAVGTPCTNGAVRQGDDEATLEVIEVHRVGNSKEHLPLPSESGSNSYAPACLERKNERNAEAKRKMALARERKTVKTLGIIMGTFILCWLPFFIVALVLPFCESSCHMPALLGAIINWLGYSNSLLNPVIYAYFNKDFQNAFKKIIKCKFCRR
Description: Inhibitory concentration against 5-hydroxytryptamine 1A receptor in rat hippocampus membrane using [3H]-8-OH-DPAT as radioligand. It is filed as cell membranes.

D(2) dopamine receptor, sequence (P61169 whole entry): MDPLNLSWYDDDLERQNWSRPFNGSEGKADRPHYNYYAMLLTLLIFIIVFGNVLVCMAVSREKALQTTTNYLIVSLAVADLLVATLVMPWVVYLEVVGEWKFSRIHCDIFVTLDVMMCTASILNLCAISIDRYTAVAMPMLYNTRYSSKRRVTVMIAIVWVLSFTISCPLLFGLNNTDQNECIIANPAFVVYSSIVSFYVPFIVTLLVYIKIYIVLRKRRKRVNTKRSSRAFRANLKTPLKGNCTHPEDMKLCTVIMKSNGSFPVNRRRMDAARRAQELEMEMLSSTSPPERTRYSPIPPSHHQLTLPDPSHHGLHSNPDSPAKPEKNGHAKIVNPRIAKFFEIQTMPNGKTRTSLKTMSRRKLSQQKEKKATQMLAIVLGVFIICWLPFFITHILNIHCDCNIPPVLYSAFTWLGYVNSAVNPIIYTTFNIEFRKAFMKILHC

As usually defined, the IC50 is the concentration at which inhibition is half-maximal. A low value points to higher potency. `O=C1c2ccccc2OC=C(Cl)N1CCCCN1CCN(c2ccccn2)CC1` came in with an IC50 in experiment [1] of 43 nM. Further, the values for the Ratio (in experiment [2]; in the experiment listed under Rattus norvegicus) were 56 and 66, respectively.
For `O=C(O)/C=C/C(=O)O.O=C1c2ccccc2OC=C(Cl)N1CCCCN1CCC=C(c2ncccn2)C1`, the IC50 in experiment [1] worked out at 384 nM; on D(2) dopamine receptor, 893 nM; in experiment [3], 79.6 nM. The Ratio in experiment [2] came to 4.8; in the experiment listed under Rattus norvegicus, 11.
In turn, `Cl.O=C1c2ccccc2OC=C(Cl)N1CCCCN1CCC(c2ncccn2)CC1` had an IC50 in experiment [1] of 2000 nM. For the same compound, the values for the Ratio (in experiment [2]; in the experiment filed under Rattus norvegicus) were 344 and 310, respectively.
Compound `Cl.O=C1c2ccccc2OC=C(Cl)N1CCCCN1CCC(O)(c2ncccn2)CC1` returned a concentration for half-maximal inhibition (IC50) in experiment [1] of 9560 nM. Besides, the Ratio in experiment [2] worked out at 3.6.
The compound `Cl.O=C1c2ccccc2OC=C(Cl)N1CCCCN1CC=C(c2ncccn2)CC1` yielded an IC50 in experiment [1] of 924 nM. The Ratio in experiment [2] turned out to be 670; in the experiment filed under Rattus norvegicus, 358.
For `O=C1c2ccccc2OC=C(Cl)N1CCCCN1CCCC(c2ncccn2)C1` (stereo not given), the IC50 in experiment [3] came to 314 nM.
As for `O=C1c2ccccc2OC=C(Cl)N1CCCCN1CCN(c2ncccn2)CC1`, the IC50 in experiment [1] is reported as 544 nM. The figures for the Ratio (in experiment [2]; in the experiment listed under Rattus norvegicus) were 342 and 125, respectively.

The values above are taken from ChEMBL document CHEMBL1139612 (Bioorg Med Chem Lett, 2005).
